≈ marks a conversion by molar mass, not a printed value.
What follows are compounds tested on Staphylococcus aureus (assay: Antibacterial activity against Staphylococcus aureus ATCC 29213 by CLSI method).
Format: functional

SMILES | MIC [µg/mL]
Oc1cc(C/C=C(/Cl)Cc2c(Br)c(O)cc(O)c2Br)c(O)cc1Cl | 10 (≈ 20 µM)
Oc1cc(O)cc(C/C(Cl)=C\Cc2cc(O)c(-c3c(O)cc(C/C(Cl)=C\Cc4cc(O)c(Cl)cc4O)cc3O)cc2O)c1 | 10 (≈ 15.5 µM)
Oc1cc(C/C=C\Cc2c(Br)c(O)cc(O)c2Br)c(O)cc1Cl | 40 (≈ 86.1 µM)
Oc1cc(C/C=C\Cc2c(Br)c(O)cc(O)c2Br)c(O)cc1Br | 40 (≈ 78.6 µM)
